One assay concerns the target Ret wt (Homo sapiens (Human), UniProt P07949). In words: Inhibition of kinase, Ret wt (HTRF KinEASE-TK). Type of assay: biochemical. Particulars: HTRF KinEASE-TK, reaction 20 minutes at room temperature; read-out: Ret wt IC50. The protocol:
(§1) Ret wt (Carna, Cat. No. 08-159-10 ug), RET (V804M), Active (Signalchem, Cat. No. R02-12GG), HTRF KinEASE-TK kit (Cisbio, Cat. No. 62TK0PEC), CEP-32496 (MCE, Cat. No. HY-15200), ATP (Sigma, Cat. No. A7699), DMSO (Sigma, Cat. No. D8418-1L), DTT (Sigma, Cat. No. D0632), MgCl2 (Sigma, Cat. No. M1028), 384-well plate (Labcyte, Cat. No. P-05525-BC).
(§2) Formulation of compound: The test compounds were dissolved in DMSO to obtain 10 mM stock solutions, which were then serially diluted 3-fold in DMSO to obtain 10 concentrations. At the time of addition, the compound was further diluted 10-fold with buffer.
(§3) In 5× kinase buffer A, Ret wt or RET V804M kinase was mixed with different concentrations of compounds prepared by pre-dilution for 10 minutes. Each concentration was tested in duplicate. The corresponding substrate and ATP were added, and reaction was performed at room temperature for 20 minutes (negative and positive controls were provided: the negative control was a blank control, and the positive control was CEP-32496). After completion of the reaction, detection reagents (reagents in the HTRF KinEASE-TK kit) were added. After incubating for 30 minutes at room temperature, enzyme activity in the presence of various concentrations of the compounds of the present disclosure was determined by Envision microplate reader, and inhibitory activity of different concentrations of the compounds on enzyme activity was calculated. The inhibitory activity of different concentrations of the compounds on enzyme activity was fitted by Graphpad 5.0 software, and the IC50 value was calculated, wherein A indicates IC50 10 nM, B indicates 10 nM<IC50≤50 nM, C indicates 50 nM<IC50≤100 nM, and D indicates IC50>100 nM.

For a further assay, the target named is RET V804M (Homo sapiens (Human), UniProt P07949, V804M). The experiment in a line: Inhibition of kinase, RET V804M (HTRF KinEASE-TK). The assay is classed as biochemical. Particulars: reaction 20 minutes at room temperature. The protocol: as §1, §2, §3
In a further assay the test system is Ba/F3 parental. In words: Cytotoxicity assay, Ba/F3 parental (CellTiter-Glo). Particulars: Mus musculus, BaF3; 72 hrs, CTG. Type of assay: cell-based. The source says:
[Worded in the source for another cell line; this cell line is reported under the same test.] (§4) Inhibitory effect of example compounds on the activity of Ba/F3 KIF5B-RET and Ba/F3 FLT3-ITD cells was detected.
(§5) Materials and reagents: fetal bovine serum (FBS) (GIBCO, Cat. No. 10099141), CellTiter-Glo® Luminescent Cell Viability Assay (Promega, Cat #G7572), 96-well clear flat-bottom black-wall plate (Corning®, Cat #3603).
(§6) • 1. Cells in the logarithmic growth phase were harvested and counted with a […]. Cell viability was detected by a trypan blue exclusion method, ensuring that cell viability was 90% or more; • 2. The cell concentration was adjusted to 3000 cells/well; 90 μl of cell suspension was added to each well of the 96-well plate; • 3. The cells in the 96-well plate were incubated overnight under the condition of 37° C., 5% CO2, and 95% humidity. Dilution and Addition of Compound: • 1. 10-fold compound solutions were formulated by 3.16-fold serial dilution starting from a concentration of 10 μM, resulting in 9 concentrations. 10 μL of the compound solutions were added in each well of the 96-well plate seeded with cells in triplicate for each compound concentration; • 2. The cells in the 96-well plate added with compounds were further incubated under the condition of 37° C., 5% CO2, and 95% humidity for 72 hrs, and then CTG analysis was carried out. Plate Reading at the End: • 1. CTG reagent was thawed, and the cell plate was equilibrated at room temperature for 30 minutes; • 2. An equal volume ([…]) of CTG solution was added to each well; • 3. The cell plate was shaken on an orbital shaker for 5 minutes to lyse the cells; • 4. The cell plate was placed at RT for 20 minutes to stabilize the luminescence signal; • 5. Luminescence value was read. Data Processing
(§7) Data were analyzed by GraphPad Prism 5.0 software, and fitted by nonlinear S-curve regression to obtain a dose-response curve, from which IC50 values were calculated, wherein A indicates IC50≤10 nM, B indicates 10 nM<IC50≤50 nM, C indicates 50 nM<IC50≤100 nM, and D indicates IC50>100 nM. cell survival (%)=(Lumtest compound−Lumculture medium control)/(Lumcell control−Lumculture medium control)×100%.

A further assay deals with Ba/F3 KIF5B-RET cells. The experiment in a line: Cytotoxicity assay, Ba/F3 KIF5B-RET (CellTiter-Glo). Particulars: Mus musculus, BaF3; 72 hrs, CTG. The assay is classed as cell-based.
From the text: as §4, §5, §6, §7

A further assay concerns Ba/F3 KIF5B-RET^V804M. The experiment in a line: Cytotoxicity assay, Ba/F3 KIF5B-RET V804M (CellTiter-Glo). Type of assay: cell-based. To be noted: Mus musculus, BaF3; 72 hrs, CTG.
From the text: [Worded in the source for another variant; this variant is reported under the same test.] as §4, §5, §6, §7

The subject of the next assay is Ba/F3 FLT3-ITD cells. In words: Cytotoxicity assay, Ba/F3 FLT3-ITD (CellTiter-Glo). The assay is classed as cell-based. To be noted: 72 hrs, CTG.
From the text: as §4, §5, §6, §7

Another assay relates to Ba/F3 FLT3-ITD^D835Y. In words: Cytotoxicity assay, Ba/F3 FLT3-ITD D835Y (CellTiter-Glo). The assay is classed as cell-based. To be noted: Mus musculus, BaF3; 72 hrs, CTG.
From the text: [Worded in the source for another variant; this variant is reported under the same test.] as §4, §5, §6, §7

A further assay concerns Ba/F3 FLT3-ITD^F691L. The experiment in a line: Cytotoxicity assay, Ba/F3 FLT3-ITD F691L (CellTiter-Glo). The assay is classed as cell-based. Particulars: Mus musculus, BaF3; 72 hrs, CTG.

Sequence of RET V804M (P07949 29-1114 V804M): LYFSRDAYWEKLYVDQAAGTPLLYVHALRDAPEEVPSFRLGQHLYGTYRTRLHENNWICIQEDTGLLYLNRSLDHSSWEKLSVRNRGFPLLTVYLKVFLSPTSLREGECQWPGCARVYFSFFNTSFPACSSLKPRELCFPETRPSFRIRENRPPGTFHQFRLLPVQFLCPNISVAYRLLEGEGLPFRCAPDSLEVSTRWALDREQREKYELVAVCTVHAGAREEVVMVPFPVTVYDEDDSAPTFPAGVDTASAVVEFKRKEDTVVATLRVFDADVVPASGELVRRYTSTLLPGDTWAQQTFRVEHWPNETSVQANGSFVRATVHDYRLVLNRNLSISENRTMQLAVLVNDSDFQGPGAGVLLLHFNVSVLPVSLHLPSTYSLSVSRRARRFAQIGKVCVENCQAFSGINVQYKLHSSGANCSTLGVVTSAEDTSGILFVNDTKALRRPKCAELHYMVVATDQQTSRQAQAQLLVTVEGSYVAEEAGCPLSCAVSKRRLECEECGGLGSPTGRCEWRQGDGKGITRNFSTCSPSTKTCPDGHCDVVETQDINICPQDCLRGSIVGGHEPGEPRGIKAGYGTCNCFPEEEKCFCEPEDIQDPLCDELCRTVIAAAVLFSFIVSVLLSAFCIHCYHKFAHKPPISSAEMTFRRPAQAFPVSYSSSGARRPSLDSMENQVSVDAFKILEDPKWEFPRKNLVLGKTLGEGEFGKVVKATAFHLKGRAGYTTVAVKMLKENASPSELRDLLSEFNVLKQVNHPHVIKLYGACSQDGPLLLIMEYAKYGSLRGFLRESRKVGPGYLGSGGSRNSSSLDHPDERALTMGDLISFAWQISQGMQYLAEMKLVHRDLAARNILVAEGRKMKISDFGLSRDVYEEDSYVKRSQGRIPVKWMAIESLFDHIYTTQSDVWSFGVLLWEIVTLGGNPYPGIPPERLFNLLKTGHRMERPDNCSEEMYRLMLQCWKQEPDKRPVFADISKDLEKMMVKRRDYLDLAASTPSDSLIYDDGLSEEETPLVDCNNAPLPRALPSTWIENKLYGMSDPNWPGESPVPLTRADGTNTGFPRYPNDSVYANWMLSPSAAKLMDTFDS
Sequence of Ret wt (P07949 29-1114): as the sequence (P07949 29-1114 V804M) above, with M776V counted along it

Turning to `Cn1cc(-c2ccc3c(-c4ccc(CC(=O)Nc5cc(C(C)(C)C(F)(F)F)on5)cc4)cnn3c2)cn1` [Compound T-11, 2-(4-(6-(1-methyl-1H-pyrazol-4-yl)pyrazolo[1,5-a]pyridin-3-yl)phenyl)-N-(5-(1,1,1-trifluoro-2-methylpropan-2-yl)isoxazol-3-yl)acetamide], the IC50 at Ret wt was determined as 0.68 nM; against RET V804M, 0.87 nM; with Ba/F3 parental, 1400 nM; in the assay on Ba/F3 KIF5B-RET cells it was 15.4 nM; with Ba/F3 KIF5B-RET^V804M, 3.66 nM; with Ba/F3 FLT3-ITD cells it was 0.2 nM. In addition, the IC50 amounted to 1.73 nM in the assay on Ba/F3 FLT3-ITD^D835Y and 1.12 nM in the assay with Ba/F3 FLT3-ITD^F691L.

These data come from patent US12365685B2, “Substituted fused aromatic ring derivative, composition and use thereof” (Shenzhen TargetRx, Inc., priority 2019, dated 2025).
